Data published in patent US20160237067A1, “SUBSTITUTED PHENYLALANINE DERIVATIVES” (BAYER PHARMA AKTIENGESELLSCHAFT, priority 2013, published 2016).
Where a name gives a salt, the structure may show the parent alone.

How the values were obtained:
human factor XIa = target: T1, human factor XIa (Homo sapiens, UniProt P03951); assay: Measurement of FXIa inhibition (fluorogenic peptide substrate Boc-Glu(OBzl)-Ala-Arg-AMC); assay type: biochemical; conditions: factor XIa from Kordia 0.45 nM; 15 min preincubation; 30 min at 22° C.
T1 construct: purchased Kordia
Protocol: The factor XIa inhibition of the substances according to the invention is determined using a biochemical test system which utilizes the reaction of a peptidic factor XIa substrate to determine the enzymatic activity of human factor XIa. Here, factor XIa cleaves from the peptic factor XIa substrate the C-terminal aminomethylcoumarin (AMC), the fluorescence of which is measured. The determinations are carried out in microtitre plates.
Test substances are dissolved in dimethyl sulphoxide and serially diluted in dimethyl sulphoxide (3000 μM to 0.0078 μM; resulting final concentrations in the test: 50 μM to 0.00013 μM). In each case 1 μl of the diluted substance solutions is placed into the wells of white microtitre plates from Greiner (384 wells). Subsequently, the following are added successively: 20 μl of assay buffer (50 mmol/l Tris buffer pH 7.4; 100 mmol/l sodium chloride; 5 mmol/l calcium chloride; 0.1% bovine serum albumin) and 20 μl of factor XIa from Kordia (0.45 nM in assay buffer). After 15 min of incubation, the enzyme reaction is started by addition of 20 μl of the factor XIa substrate Boc-Glu(OBzl)-Ala-Arg-AMC dissolved in assay buffer (10 μM in assay buffer) from Bachem, the mixture is incubated at room temperature (22° C.) for 30 min and fluorescence is then measured (excitation: 360 nm, emission: 460 nm). The measured emissions of the test batches with test substance are compared to those of control batches without test substance (only dimethyl sulphoxide instead of test substance in dimethyl sulphoxide), and IC50 values are calculated from the concentration/activity relationships.

human and animal plasma = assay: Determination of anticoagulatory activity: activated partial thromboplastin time (aPTT) in plasma; assay type: biochemical; conditions: C.K. Prest kit, 37° C., 3 minutes incubation, plasma species of Table B not stated
Protocol: The anticoagulatory activity of the test substances is determined in vitro in human and animal plasma (for example mouse, rat, rabbit, pig and dog plasma). To this end, blood is drawn off in a mixing ratio of sodium citrate/blood of 1:9 using a 0.11 molar sodium citrate solution as receiver. Immediately after the blood has been drawn off, it is mixed thoroughly and centrifuged at about 4000 g for 15 minutes. The supernatant is pipetted off.
The activated partial thromboplastin time (aPTT) is determined in the presence of varying concentrations of test substance or the corresponding solvent using a commercial test kit (C.K. Prest from Diagnostica Stago). The test compounds are incubated with the plasma and the PTT reagent (cephalin, kaolin) at 37° C. for 3 minutes. Coagulation is then started by addition of a 25 mM aqueous calcium chloride solution, and the time when coagulation occurs is determined. The concentration of test substance which brings about a 1.5-fold extension of the aPTT is determined Activity data from this test are listed in Table B below: […]

T1 sequence (P03951 388-625 limits assumed): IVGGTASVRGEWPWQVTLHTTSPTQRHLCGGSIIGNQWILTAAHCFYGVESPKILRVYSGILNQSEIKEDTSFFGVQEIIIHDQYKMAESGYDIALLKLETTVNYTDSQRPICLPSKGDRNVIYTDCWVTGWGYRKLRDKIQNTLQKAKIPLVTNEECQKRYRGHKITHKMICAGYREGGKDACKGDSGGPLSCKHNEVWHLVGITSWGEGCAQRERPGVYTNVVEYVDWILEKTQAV
T1 sequence (P03951 19-387 partner limits assumed): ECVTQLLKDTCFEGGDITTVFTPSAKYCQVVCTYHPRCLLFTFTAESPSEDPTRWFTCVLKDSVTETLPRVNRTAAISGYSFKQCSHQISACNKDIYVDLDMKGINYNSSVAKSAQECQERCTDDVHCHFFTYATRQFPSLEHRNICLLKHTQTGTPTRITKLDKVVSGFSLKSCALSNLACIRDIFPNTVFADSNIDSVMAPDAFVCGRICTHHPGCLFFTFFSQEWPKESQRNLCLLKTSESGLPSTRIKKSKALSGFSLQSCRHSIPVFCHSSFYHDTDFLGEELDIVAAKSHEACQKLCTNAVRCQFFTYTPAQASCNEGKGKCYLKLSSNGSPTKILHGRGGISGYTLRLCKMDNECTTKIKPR

IC50 (human factor XIa) [nM]	Structure (SMILES)	aPTT (concentration of test substance which brings about a 1.5-fold extension of the aPTT) (human and animal plasma) [µmol/L]
6.8	Cc1ccc(C(=O)NC2CCN(C)CC2)cc1-c1ccc(C[C@H](NC(=O)[C@H]2CC[C@H](CN)CC2)C(=O)Nc2ccc(-c3nc(C(F)(F)C(F)(F)C(=O)O)n[nH]3)cc2)cc1 [Example 42, 3-[5-(4-{[(2S)-2-({[trans-4-(Aminomethyl)cyclohexyl]carbonyl}amino)-3-{2′-methyl-5′-[(1-methylpiperidin-4-yl)carbamoyl]biphenyl-4-yl}propanoyl]amino}phenyl)-1H-1,2,4-triazol-3-yl]-2,2,3,3-tetrafluoropropanoic acid hydrochloride]	0.16
4.7	Cc1ccc(C(=O)N[C@H]2CC[C@H](O)CC2)cc1-c1ccc(C[C@H](NC(=O)[C@H]2CC[C@H](CN)CC2)C(=O)Nc2ccc(-c3nn[nH]n3)cc2)cc1 [Example 32, 4′-[(2S)-2-({[trans-4-(Aminomethyl)cyclohexyl]carbonyl}amino)-3-oxo-3-{[4-(2H-tetrazol-5-yl)phenyl]amino}propyl]-N-(trans-4-hydroxycyclohexyl)-6-methylbiphenyl-3-carboxamide hydrochloride]	0.15
11	CN1CCN(C(=O)c2cccc(-c3ccc(C[C@H](NC(=O)[C@H]4CC[C@H](CN)CC4)C(=O)Nc4ccc(-c5nnn[nH]5)cc4)cc3)c2)CC1 [Example 5, trans-4-(Aminomethyl)-N-[(2S)-3-{3′-[(4-methylpiperazin-1-yl)carbonyl]biphenyl-4-yl}-1-oxo-1-{[4-(1H-tetrazol-5-yl)phenyl]amino}propan-2-yl]cyclohexanecarboxamide hydrochloride]	0.37
9.7	Cc1ccc(C(=O)NC(C)C)cc1-c1ccc(C[C@H](NC(=O)[C@H]2CC[C@H](CN)CC2)C(=O)Nc2ccc(-c3nc(CCC(=O)O)n[nH]3)cc2)cc1 [Example 43, 3-{5-[4-({(2S)-2-({[trans-4-(Aminomethyl)cyclohexyl]carbonyl}amino)-3-[5′-(isopropylcarbamoyl)-2′-methylbiphenyl-4-yl]propanoyl}amino)phenyl]-1H-1,2,4-triazol-3-yl}propanoic acid hydrochloride]	0.38
10	NC[C@H]1CC[C@H](C(=O)N[C@@H](Cc2ccc(-c3ccc(F)c(C(=O)NC4CCNCC4)c3)cc2)C(=O)Nc2ccc(-c3nn[nH]n3)cc2)CC1 [Example 35, 4′-[(2S)-2-({[trans-4-(Aminomethyl)cyclohexyl]carbonyl}amino)-3-oxo-3-{[4-(2H-tetrazol-5-yl)phenyl]amino}propyl]-4-fluoro-N-(piperidin-4-yl)biphenyl-3-carboxamide hydrochloride]	0.2
1.5	Cc1ccc(N(C)C)cc1-c1ccc(C[C@H](NC(=O)[C@H]2CC[C@H](CN)CC2)C(=O)Nc2ccc(-c3nnn[nH]3)cc2)cc1 [Example 28, trans-4-(Aminomethyl)-N-[(2S)-3-[5′-(dimethylamino)-2′-methylbiphenyl-4-yl]-1-oxo-1-{[4-(1H-tetrazol-5-yl)phenyl]amino}propan-2-yl]cyclohexanecarboxamide hydrochloride]	0.26
3.3	Cc1cc(C)c(-c2ccc(C[C@H](NC(=O)[C@H]3CC[C@H](CN)CC3)C(=O)Nc3ccc(-c4nn[nH]n4)cc3)cc2)cc1C(=O)N(C)C [Example 39, 4′-[(2S)-2-({[trans-4-(Aminomethyl)cyclohexyl]carbonyl}amino)-3-oxo-3-{[4-(2H-tetrazol-5-yl)phenyl]amino}propyl]-N,N,4,6-tetramethylbiphenyl-3-carboxamide hydrochloride]	
8	CCN(CC)CCNC(=O)c1ccc(C)c(-c2ccc(C[C@H](NC(=O)[C@H]3CC[C@H](CN)CC3)C(=O)Nc3ccc(-c4nn[nH]n4)cc3)cc2)c1 [Example 10, 4′-[(2S)-2-({[trans-4-(Aminomethyl)cyclohexyl]carbonyl}amino)-3-oxo-3-{[4-(2H-tetrazol-5-yl)phenyl]amino}propyl]-N-[2-(diethylamino)ethyl]-6-methylbiphenyl-3-carboxamide hydrochloride]	0.38
4.1	Cc1cc(C(=O)NC2CCN(C)CC2)cc(-c2ccc(C[C@H](NC(=O)[C@H]3CC[C@H](CN)CC3)C(=O)Nc3ccc(-c4nn[nH]n4)cc3)cc2)c1C [Example 34, 4′-[(2S)-2-({[trans-4-(Aminomethyl)cyclohexyl]carbonyl}amino)-3-oxo-3-{[4-(2H-tetrazol-5-yl)phenyl]amino}propyl]-5,6-dimethyl-N-(1-methylpiperidin-4-yl)biphenyl-3-carboxamide hydrochloride]	0.06
2.7	Cc1c(F)cc(C(=O)NC(C)C)cc1-c1ccc(C[C@H](NC(=O)[C@H]2CC[C@H](CN)CC2)C(=O)Nc2ccc(-c3nn[nH]n3)cc2)cc1 [Example 30, 4′-[(2S)-2-({[trans-4-(Aminomethyl)cyclohexyl]carbonyl}amino)-3-oxo-3-{[4-(2H-tetrazol-5-yl)phenyl]amino}propyl]-5-fluoro-N-isopropyl-6-methylbiphenyl-3-carboxamide hydrochloride]	0.2
3.1	NC[C@H]1CC[C@H](C(=O)N[C@@H](Cc2ccc(-c3cccc(S(N)(=O)=O)c3)cc2)C(=O)Nc2ccc(-c3nnn[nH]3)cc2)CC1 [Example 4, trans-4-(Aminomethyl)-N-[(2S)-1-oxo-3-(3′-sulphamoylbiphenyl-4-yl)-1-{[4-(1H-tetrazol-5-yl)phenyl]amino}propan-2-yl]cyclohexanecarboxamide hydrochloride]	0.16
2.8	Cc1ccc(S(=O)(=O)N(C)C)cc1-c1ccc(C[C@H](NC(=O)[C@H]2CC[C@H](CN)CC2)C(=O)Nc2ccc(-c3nnc(Cl)[nH]3)cc2)cc1 [Example 3, trans-4-(Aminomethyl)-N-{(2S)-1-{[4-(5-chloro-4H-1,2,4-triazol-3-yl)phenyl]amino}-3-[5′-(dimethylsulphamoyl)-2′-methylbiphenyl-4-yl]-1-oxopropan-2-yl}cyclohexanecarboxamide hydrochloride]	0.19
4.1	Cc1ccc(-c2ccc(C[C@H](NC(=O)[C@H]3CC[C@H](CN)CC3)C(=O)Nc3ccc(-c4nn[nH]n4)cc3)cc2)cc1C(=O)N1CCOCC1 [Example 38, trans-4-(Aminomethyl)-N-[(2S)-3-[4′-methyl-3′-(morpholin-4-ylcarbonyl)biphenyl-4-yl]-1-oxo-1-{[4-(2H-tetrazol-5-yl)phenyl]amino}propan-2-yl]cyclohexanecarboxamide hydrochloride]	0.22
2.2	COc1ccc(-c2ccc(C[C@H](NC(=O)[C@H]3CC[C@H](CN)CC3)C(=O)Nc3ccc(-c4nc(C(F)(F)C(F)(F)C(=O)O)n[nH]4)cc3)cc2)cc1S(=O)(=O)N1CCOCC1 [Example 44, 3-{5-[4-({(2S)-2-({[trans-4-(Aminomethyl)cyclohexyl]carbonyl}amino)-3-[4′-methoxy-3′-(morpholin-4-ylsulphonyl)biphenyl-4-yl]propanoyl}amino)phenyl]-1H-1,2,4-triazol-3-yl}-2,2,3,3-tetrafluoropropanoic acid hydrochloride]	0.2
2.8	CNC(=O)c1ccc(C)c(-c2ccc(C[C@H](NC(=O)[C@H]3CC[C@H](CN)CC3)C(=O)Nc3ccc(-c4nnc(C(F)(F)C(F)(F)C(=O)O)[nH]4)cc3)cc2)c1 [Example 41, 3-{5-[4-({(2S)-2-({[trans-4-(Aminomethyl)cyclohexyl]carbonyl}amino)-3-[2′-methyl-5′-(methylcarbamoyl)biphenyl-4-yl]propanoyl}amino)phenyl]-4H-1,2,4-triazol-3-yl}-2,2,3,3-tetrafluoropropanoic acid hydrochloride]	
